# From PMC8224687, “Lipophilicity, Pharmacokinetic Properties, and Molecular Docking Study on SARS-CoV-2 Target for Betulin Triazole Derivatives with Attached 1,4-Quinone” (Pharmaceutics, 2021)
# Like-named read-outs stand apart in the source and are kept apart here.
# Columns and labels:
# [1] = pH 7.4
# [2] = Experimental lipophilicity by RP-TLC (RM0, logPTLC, hydrophobic index); conditions: for RM0 (chromatographic parameter of lipophilicity): RP-TLC, acetone / TRIS 0.2 M pH 7.4, extrapolated to zero acetone; for chromatographic logP: logPTLC (experimental lipophilicity); for chromatographic logP / logPTLC (experimental lipophilicity): from RM0 by calibration curve Equation (4); for hydrophobic index (φ0): φ0 = −RM0/b
# [3] = parameters: method as in PMID 9879505, doi:10.1021/ja00193a003; conditions: literature values of standard substances ref 52, 53; cited from earlier work
SMILES,RM0 (chromatographic parameter of lipophilicity) [1],RM0 (chromatographic parameter of lipophilicity) [2],chromatographic logP [2],hydrophobic index (φ0) [2],logPTLC (experimental lipophilicity) [2],logPlit [3],chromatographic logP (physchem)
"CC(=O)c1ccc(Br)cc1 [4-Bromoacetophenone, 4-bromoacetophenone]",1.89,–,–,–,–,–,–
"CC(=O)Nc1ccccc1 [Acetanilide, acetanilide, reference compound]",–,0.55,1.19,–,–,–,–
"c1ccc2cc3ccccc3cc2c1 [Anthracene, anthracene, reference compound]",–,3.48,4.52,–,–,–,–
C=C(C)[C@@H]1CC[C@]2(COC(=O)c3cn(CCCOC4=C(Cl)C(=O)c5cccnc5C4=O)nn3)CC[C@]3(C)C(CCC4[C@@]5(C)CC[C@H](O)C(C)(C)C5CC[C@]43C)C12 (stereo partly shown) [Compound 1],–,3.51,–,82.40,–,–,–
C=C(C)[C@@H]1CC[C@]2(COC(=O)c3cn(CCCOC4=C(Cl)C(=O)c5cccnc5C4=O)nn3)CC[C@]3(C)C(CCC4[C@@]5(C)CCC(=O)C(C)(C)C5CC[C@]43C)C12 (stereo partly shown) [Compound 2],–,3.64,4.71,83.14,–,–,–
C=C(C)[C@@H]1CC[C@]2(COC(=O)c3cn(CCCOC4=C(Cl)C(=O)c5cccnc5C4=O)nn3)CC[C@]3(C)C(CCC4[C@@]5(C)CC[C@H](OC(C)=O)C(C)(C)C5CC[C@]43C)C12 (stereo partly shown) [Compound 3],–,3.97,–,84.76,5.08,–,–
C=C(C)[C@@H]1CC[C@]2(COC(=O)c3cn(CCCOC4=C(Cl)C(=O)c5cccnc5C4=O)nn3)CC[C@]3(C)C(CCC4[C@@]5(C)CC[C@H](OC(=O)CC)C(C)(C)C5CC[C@]43C)C12 (stereo partly shown) [Compound 4],–,4.08,5.21,87.00,–,–,–
C=C(C)[C@@H]1CC[C@]2(COC(=O)c3cn(CCCOC4=C(Cl)C(=O)c5ccncc5C4=O)nn3)CC[C@]3(C)C(CCC4[C@@]5(C)CC[C@H](O)C(C)(C)C5CC[C@]43C)C12 (stereo partly shown) [Compound 5],–,3.56,–,79.81,–,–,–
C=C(C)[C@@H]1CC[C@]2(COC(=O)c3cn(CCCOC4=C(Cl)C(=O)c5ccncc5C4=O)nn3)CC[C@]3(C)C(CCC4[C@@]5(C)CCC(=O)C(C)(C)C5CC[C@]43C)C12 (stereo partly shown) [Compound 6],–,3.59,–,82.83,–,–,–
C=C(C)[C@@H]1CC[C@]2(COC(=O)c3cn(CCCOC4=C(Cl)C(=O)c5ccncc5C4=O)nn3)CC[C@]3(C)C(CCC4[C@@]5(C)CC[C@H](OC(C)=O)C(C)(C)C5CC[C@]43C)C12 (stereo partly shown) [Compound 7],–,4.07,5.2,83.48,–,–,–
C=C(C)[C@@H]1CC[C@]2(COC(=O)c3cn(CCCOC4=C(Cl)C(=O)c5ccncc5C4=O)nn3)CC[C@]3(C)C(CCC4[C@@]5(C)CC[C@H](OC(=O)CC)C(C)(C)C5CC[C@]43C)C12 (stereo partly shown) [Compound 8],–,4.24,–,88.21,5.39,–,–
C=C(C)[C@@H]1CC[C@]2(COC(=O)c3cn(CCCOC4=C(Cl)C(=O)c5ccc(C)nc5C4=O)nn3)CC[C@]3(C)C(CCC4[C@@]5(C)CC[C@H](O)C(C)(C)C5CC[C@]43C)C12 (stereo partly shown) [Compound 9],–,3.65,4.72,82.43,–,–,–
C=C(C)[C@@H]1CC[C@]2(COC(=O)c3cn(CCCOC4=C(Cl)C(=O)c5ccc(C)nc5C4=O)nn3)CC[C@]3(C)C(CCC4[C@@]5(C)CCC(=O)C(C)(C)C5CC[C@]43C)C12 (stereo partly shown) [Compound 10],–,3.77,–,83.85,–,–,–
C=C(C)[C@@H]1CC[C@]2(COC(=O)c3cn(CCCOC4=C(Cl)C(=O)c5ccc(C)nc5C4=O)nn3)CC[C@]3(C)C(CCC4[C@@]5(C)CC[C@H](OC(C)=O)C(C)(C)C5CC[C@]43C)C12 (stereo partly shown) [Compound 11],–,4.12,–,85.94,5.26,–,–
C=C(C)[C@@H]1CC[C@]2(COC(=O)c3cn(CCCOC4=C(Cl)C(=O)c5ccc(C)nc5C4=O)nn3)CC[C@]3(C)C(CCC4[C@@]5(C)CC[C@H](OC(=O)CC)C(C)(C)C5CC[C@]43C)C12 (stereo partly shown) [Compound 12],–,4.39,–,88.32,5.56,–,–
C=C(C)[C@@H]1CC[C@]2(COC(=O)c3cn(CCCOC4=C(Cl)C(=O)c5ccccc5C4=O)nn3)CC[C@]3(C)C(CCC4[C@@]5(C)CC[C@H](O)C(C)(C)C5CC[C@]43C)C12 (stereo partly shown) [Compound 13],–,3.78,–,87.13,4.87,–,–
C=C(C)[C@@H]1CC[C@]2(COC(=O)c3cn(CCCOC4=C(Cl)C(=O)c5ccccc5C4=O)nn3)CC[C@]3(C)C(CCC4[C@@]5(C)CCC(=O)C(C)(C)C5CC[C@]43C)C12 (stereo partly shown) [Compound 14],–,3.84,–,87.76,4.93,–,–
C=C(C)[C@@H]1CC[C@]2(COC(=O)c3cn(CCCOC4=C(Cl)C(=O)c5ccccc5C4=O)nn3)CC[C@]3(C)C(CCC4[C@@]5(C)CC[C@H](OC(C)=O)C(C)(C)C5CC[C@]43C)C12 (stereo partly shown) [Compound 15],–,4.21,–,85.11,5.35,–,–
C=C(C)[C@@H]1CC[C@]2(COC(=O)c3cn(CCCOC4=C(Cl)C(=O)c5ccccc5C4=O)nn3)CC[C@]3(C)C(CCC4[C@@]5(C)CC[C@H](OC(=O)CC)C(C)(C)C5CC[C@]43C)C12 (stereo partly shown) [Compound 16],–,4.58,5.77,86.18,–,–,–
C=C(C)[C@@H]1CC[C@]2(COC(=O)c3cn(CCCO)nn3)CC[C@]3(C)C(CCC4[C@@]5(C)CC[C@H](O)C(C)(C)C5CC[C@]43C)C12 (stereo partly shown) [Compound 17],–,4.40,5.57,82.62,–,–,–
C=C(C)[C@@H]1CC[C@]2(COC(=O)c3cn(CCCO)nn3)CC[C@]3(C)C(CCC4[C@@]5(C)CCC(=O)C(C)(C)C5CC[C@]43C)C12 (stereo partly shown) [Compound 18],–,4.54,5.73,83.67,–,–,–
C=C(C)[C@@H]1CC[C@]2(COC(=O)c3cn(CCCO)nn3)CC[C@]3(C)C(CCC4[C@@]5(C)CC[C@H](OC(C)=O)C(C)(C)C5CC[C@]43C)C12 (stereo partly shown) [Compound 19],–,5.07,6.33,86.06,–,–,–
C=C(C)[C@@H]1CC[C@]2(COC(=O)c3cn(CCCO)nn3)CC[C@]3(C)C(CCC4[C@@]5(C)CC[C@H](OC(=O)CC)C(C)(C)C5CC[C@]43C)C12 (stereo partly shown) [Compound 20],–,5.26,6.55,87.13,–,–,–
"Clc1ccc(C(c2ccc(Cl)cc2)C(Cl)(Cl)Cl)cc1 [DDT, dichlorodiphenyltrichloroethane, reference compound]",–,4.87,–,–,6.17,6.01,–
"c1ccc(CCc2ccccc2)cc1 [Dibenzyl, dibenzyl]",3.65,–,–,–,–,–,–
"C[C@]12C=CC(=O)C=C1CC[C@@H]1[C@@H]2C(=O)C[C@@]2(C)[C@H]1CC[C@]2(O)C(=O)CO [Prednisone, prednisone, reference compound]",–,0.73,–,–,–,–,1.39
